Measurements reported in US20250049735A1, “MEDICINE FOR STEATOHEPATITIS” (The University of Tokyo, priority 2021, published 2025).
Where two headings read alike, the source gives them in different places.

Test system: Tax-iIEC-KO mice
Conditions: for concentration of betaine in the liver / concentration of choline in the liver: compared with control mice
Excerpt: Atp8b1^flox/flox mice were mated with villin-Cre/ERT2 transgenic mice (Stock No. 020282; The Jackson Laboratory), and Atp8b1^flox/+; villin-Cre/ERT2 mice in the obtained offsprings were then mated with Atp8b1^flox/flox mice to obtain Tamoxifen-induced, intestinal epithelial cell (IEC)-specific Atp8b1 knockout (Atp8b1Tax-iIEC-KO: Atp8b1^flox/flox; villin-Cre/ERT2) mice (Atp8b1 Tax-iIEC-KO mice). The resulting Atp8b1 Tax-iIEC-KO mice and littermate Atp8b1^flox/flox mice were used for animal experiments.
ALT and AST were determined by automatic measurement with Dri-chem (FUJIFILM, Tokyo, Japan).
The liver was cut into small pieces, was then fixed with 10% neutral buffered formalin, and was then embedded in paraffin. The small intestine was rinsed with PBS, was fixed with 10% neutral buffered formalin, was then cut into 2 segments (corresponding to the proximal side and the distal side), and was then opened longitudinally. The thus cut small intestine was opened with a toothpick, was immobilized with a pathological pin, was then fixed with 10% neutral buffered formalin, and was then embedded in paraffin. Paraffin sections (3 μm each) were prepared, and were then deparaffinized and rehydrated. Thereafter, the resulting paraffin sections were stained with hemotoxylin and eosin, and were then mounted in Entellan new (Merck, Branchburg, NJ).
The concentrations of choline, betaine, dimethylglycine (N,N-dimethylglycine) and glycerophosphorylcholine (sn-glycero-3-phosphocholine) in plasma were determined by liquid chromatography/tandem mass spectrometry (LC/MS/MS) assay. The sample was mixed with 98-fold volume of ethanol and 1-fold volume of the internal standard (IS) solution (10 μmol/L choline in water, 10 μmol/L glycerophosphorylcholine in water, and 1 μmol/L betaine in water). After vortex mixing, the sample was centrifuged at 21,500×g at 4° C. for 5 minutes. The obtained supernatant was injected into a UHPLC Nexera liquid chromatography system (Shimadzu co., Kyoto, Japan) equipped with an Ascentis Express HILIC column (2.1×50 mm, 2.7 μm, Merck KGaA, Darmstadt, Germany), and was then maintained at 4° C. The analyte was separated from the internal standard by gradient elution of mobile phase A (10 mmol/L ammonium acetate in water) and of mobile phase B (acetonitrile/water mixture) (99:1, v/v)). The gradient elution was carried out under the following conditions: 0-2 min., 82.5% B; 2-4 min., 82.5% to 5% B and 4-7 min. 5% B with a flow rate of 0.6 mL/min. The eluate was directly subjected to electrospray ionization under a positive ion mode using a 5500QTRAP mass spectrometer (Sciex pte. ltd., Toronto, Canada). All target molecules were scanned by selected reaction monitoring (SRM) mode.
Eight-week-old Tax-iIEC-KO mice and control mice were started to be fed with a control diet, a 0.3% choline supplemented diet, or a 1% choline supplemented diet, and at the same time, the Tax-iIEC-KO mice and the control mice were administered with 1 mg/day of Tamoxifen for 5 consecutive days. Thereafter, the mice were dissected at 10 weeks of age.

[1] = 0.3% choline supplemented diet, 8 to 10 weeks of age
[2] = choline supplemented diet (0.3% or 1%) from 8 to 10 weeks of age, Tamoxifen 1 mg/day for 5 days

SMILES: C[N+](C)(C)CCO [choline]
- increase in liver injury markers (AST and ALT) [1]: suppressed
- onset of steatohepatitis (liver pathological images) [1]: suppressed
- concentration of betaine in the liver (0.3% choline supplemented diet): recovered
- concentration of choline in the liver (0.3% choline supplemented diet): recovered
- increase in liver injury markers (AST and ALT) (1% choline supplemented diet, 8 to 10 weeks of age): suppressed
- concentration of betaine in the liver (1% choline supplemented diet): recovered
- concentration of choline in the liver (1% choline supplemented diet): recovered
- body weight [2]: not changed
- small intestine length [2]: not changed
